Values quoted from earlier work, collected in patent US12324861B2, “Beaded nonwoven membrane as a drug delivery system” (CEBIOTEX, S.L., priority 2018, dated 2025).

Tests used:
[1] = nude mice
[2] = systemic administration in patients

conversion to SN-38 [1]: > 70% | conversion into the active derivative (SN-38) [2]: less than 10%
Structure (SMILES): CCc1c2c(nc3ccc(OC(=O)N4CCC(N5CCCCC5)CC4)cc13)-c1cc3c(c(=O)n1C2)COC(=O)[C@]3(O)CC [Irinotecan]
